# Data from paper PMC11641365, “Evaluation of In Vitro Biological Activity of Flavanone/Chromanone Derivatives: Molecular Analysis of Anticancer Mechanisms in Colorectal Cancer” (International Journal of Molecular Sciences, 2024).
# How the values were obtained:
# Type in all cases: cell-based, human
# HCT 116 = assay: Superoxide anion level, DHE probe; conditions: compound at IC50, 24 h, vs control
# Description: (§1) Superoxide anion (O2^•−) levels were quantified using a microplate spectrofluorometric assay with dihydroethidium (DHE) (Life Technologies, Carlsbad, CA, USA). DHE is a well-established fluorogenic probe for intracellular superoxide detection. […] The reaction between superoxide and DHE produces a highly specific red fluorescent product, 2-hydroxyethidium (2-OH-E ^+).
# (§2) Cells were seeded in black 96-well fluorometric microplates at a density of 10 × 10^3 cells/mL. […] Following compound incubation, the medium was removed, and the cell monolayers were washed twice with HBSS (140 mM NaCl, 5 mM KCl, 0.8 mM MgCl2, 1.8 mM CaCl2, 1 mM Na2HPO4, 10 mM HEPES, and 1% glucose). A volume of 50 µL of DHE solution in HBSS (final concentration 5 μM) was added to each well, and the cells were incubated for 30 min in the dark at 37 °C. After incubation with the DHE, fluorescence measurements were conducted using a Perkin-Elmer LS-5B spectrofluorometer (Waltham, MA, USA) at the following excitation and fluorescence emission wavelengths: λex = 498 nm/λem = 582 nm. The fluorescence intensity of control cells was arbitrarily assigned a value of 100%. The results were expressed as percentages of control, calculated by comparing the fluorescence intensity ratio of the test samples to controls (100%). The fluorescence of samples was denoted as Δf in relation to the control.
# SW620 = assay: Superoxide anion level, DHE probe; conditions: compound at IC50, 24 h, vs control
# Description: as §1, §2
# Caco-2 [1] = assay: Superoxide anion level, DHE probe; conditions: compound at IC50, 24 h, vs control
# Description: as §1, §2
# Caco-2 [2] = assay: Autophagy induction, monodansylcadaverine (MDC) fluorescence; conditions: compound at IC50, 24 h, vs control
# Description: Autophagy induction in cells treated with the tested drugs was determined by measuring Monodansylcadaverine (MDC; Sigma-Aldrich; St. Louis, MO, USA) fluorescence according to a modified method described by Vázquez. […] In the cell, MDC accumulates in lipid-rich cell membranes. It has been shown that MDC can be used as a dye for detecting autophagy, as it accumulates in autophagolysosomes as a result of interaction with membrane lipids.
# Cells were seeded in black 96-well fluorometric microplates at a density of 10 × 10^3 cells/mL. […] Following compound incubation, the medium was removed, and the cell monolayers were washed twice with HBSS (140 mM NaCl, 5 mM KCl, 0.8 mM MgCl2, 1.8 mM CaCl2, 1 mM Na2HPO4, 10 mM HEPES, and 1% glucose). A solution of MDC at a final concentration of 50 μM was added to each well and incubated in a CO2 cell culture incubator at 37 °C for 15 min. After incubation with MDC, the probe was removed, and the cells were lysed with 50 μL of lysis buffer (10 mM TRIS-HCl; pH 8 containing 0.1% Triton X-100). After lysis, fluorescence was measured at an excitation wavelength of λex = 390 nm and an emission wavelength of λem = 460 nm using a Perkin-Elmer LS-5B spectrofluorometer (Waltham, MA, USA). In order to normalize the number of cells in individual samples, the amount of DNA was determined by adding 50 μL of EB (final concentration 0.2 mM) to each well after measuring the MCB fluorescence and measuring the EB fluorescence at an excitation wavelength of λex = 530 nm and an emission wavelength of λem = 590 nm. The results were calculated as the ratio of MDC fluorescence to EB fluorescence.
# HMEC-1 = assay: MTT cell viability assay, model of normal cells; conditions: difference of IC50 values
# Description: The cytotoxic activity of the 3-benzylideneflavanones, 3-benzylidenechromanones derivatives (compounds 1, 2, 3, 4, 5) and 5′-(3-methoxyphenyl)-2-phenyl-4′,5′-dihydro-4H-spiro[chromano-3,3′-pirazol]-4-one (compound 3a) was evaluated using the MTT assay (4,5-dimethylthiazol-2-yl)-2,5-diphenyltetrazoliumbromide), a colorimetric method that quantifies cell viability.
# Cell viability was determined using the metabolic microplate spectrophotometric assay with Methylthiazolyl diphenyltetrazolium bromide (MTT) (Sigma-Aldrich; St. Louis, MO, USA). The MTT method belongs to metabolic tests for determining cell viability and consists of measuring the absorbance of a violet solution of formazan, a product of the reduction of a water-soluble yellow MTT by oxidoreductive enzymes (mainly mitochondrial succinate dehydrogenase) of living cells. […]
# The appropriate number of cells for a given cell line (6–8 × 10^3 cells/mL) were seeded onto colorless, sterile 96-well microplates (Nunc, Roskilde, Denmark) in the number appropriate for a given cell line. […] The absorbance of the formazan solution, after gentle mixing, was read at a wavelength of λ = 580 nm and a reference wavelength of λ = 720 nm (Biotek Power Wave HT, Biotek Instruments, Winooski, VT, USA). […] The absorbance of the control was taken as 100%.
smiles,measurement,setting,value
O=C1/C(=C/c2ccccc2)COc2ccccc21 [Compound 1],Increase in O2−• (superoxide anion) levels,HCT 116,10–15%
same,Increase in O2−• (superoxide anion) levels,SW620,10–15%
same,Increase in O2−• (superoxide anion) levels,Caco-2 [1],30%
same,Increase in MDC fluorescence intensity (autophagy),Caco-2 [2],25%
same,IC50 against HMEC-1 higher than for the majority of tested cancer cell lines (selectivity),HMEC-1,approximately 10 µM
